The source of these data is article PMC3433420 (PLoS ONE, 2012).

Residues, ends and D or L forms follow the SMILES beside them.

Assay in all cases: In-house protein microarrays (with or without 5 mM DTT), protein named per line
What all share (format): binding

Assay [1] deals with T1, SH2 and PTB domains (Homo sapiens, UniProt O00459).
T1 construct: thioredoxin; made in house; host or cells: BL21(DE3)pLysS E. coli
Conditions: protein PIK3R2-NC; PM assay replicate # 39307; array fabrication # 39286. A digest of the protocol: (§1)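 KD values come from rhodamine fluorescence of duplicate spots after subtraction of a thioredoxin control. Domains were printed at ~40 µM on aldehyde slides, blocked 1 h at room temperature in pH 7.8 HEPES/KCl buffer with 5 mM DTT and 1% BSA, then peptide-probed.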

Assay [2] addresses T2, SH2 and PTB domains (Homo sapiens, UniProt O43639).
T2 construct: thioredoxin; made in house; host or cells: BL21(DE3)pLysS E. coli
Conditions: protein NCK2; PM assay replicate # 39307; array fabrication # 39286. The essentials:
as §1

Assay [3] deals with T3, SH2 and PTB domains (Homo sapiens, UniProt O60880).
T3 construct: thioredoxin; made in house; host or cells: BL21(DE3)pLysS E. coli
T3 sequence (O60880 1-128): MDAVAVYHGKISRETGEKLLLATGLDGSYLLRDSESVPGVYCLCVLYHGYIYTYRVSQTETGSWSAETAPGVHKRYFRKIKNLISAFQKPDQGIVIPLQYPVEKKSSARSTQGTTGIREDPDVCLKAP
The settings on record: protein SH2D1A; PM assay replicate # 39307; array fabrication # 39286. A digest of the protocol: as §1

The target in assay [4] is T4, SH2 and PTB domains (Homo sapiens, UniProt P07947).
T4 construct: thioredoxin; made in house; host or cells: BL21(DE3)pLysS E. coli
T4 sequence (P07947 whole entry, the tested form may be a part): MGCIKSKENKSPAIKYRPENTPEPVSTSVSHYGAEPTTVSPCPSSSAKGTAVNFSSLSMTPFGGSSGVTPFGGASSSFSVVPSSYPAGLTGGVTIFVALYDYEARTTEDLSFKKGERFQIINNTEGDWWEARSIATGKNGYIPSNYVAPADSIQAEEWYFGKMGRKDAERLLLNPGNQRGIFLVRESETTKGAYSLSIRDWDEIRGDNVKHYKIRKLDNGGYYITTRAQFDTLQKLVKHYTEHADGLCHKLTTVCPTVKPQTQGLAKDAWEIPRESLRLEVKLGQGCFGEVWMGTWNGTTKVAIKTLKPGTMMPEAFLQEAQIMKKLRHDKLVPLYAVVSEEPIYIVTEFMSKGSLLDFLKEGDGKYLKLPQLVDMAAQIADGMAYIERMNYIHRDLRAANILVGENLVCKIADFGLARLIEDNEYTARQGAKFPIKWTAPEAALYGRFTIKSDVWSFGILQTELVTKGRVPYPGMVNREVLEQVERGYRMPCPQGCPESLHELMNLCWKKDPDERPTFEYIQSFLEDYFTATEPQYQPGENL
Conditions: protein YES1. A digest of the protocol: as §1

The target of assay [5] is T5, SH2 and PTB domains (Homo sapiens, UniProt P12931).
T5 construct: thioredoxin; made in house; host or cells: BL21(DE3)pLysS E. coli
T5 sequence (P12931 whole entry, the tested form may be a part): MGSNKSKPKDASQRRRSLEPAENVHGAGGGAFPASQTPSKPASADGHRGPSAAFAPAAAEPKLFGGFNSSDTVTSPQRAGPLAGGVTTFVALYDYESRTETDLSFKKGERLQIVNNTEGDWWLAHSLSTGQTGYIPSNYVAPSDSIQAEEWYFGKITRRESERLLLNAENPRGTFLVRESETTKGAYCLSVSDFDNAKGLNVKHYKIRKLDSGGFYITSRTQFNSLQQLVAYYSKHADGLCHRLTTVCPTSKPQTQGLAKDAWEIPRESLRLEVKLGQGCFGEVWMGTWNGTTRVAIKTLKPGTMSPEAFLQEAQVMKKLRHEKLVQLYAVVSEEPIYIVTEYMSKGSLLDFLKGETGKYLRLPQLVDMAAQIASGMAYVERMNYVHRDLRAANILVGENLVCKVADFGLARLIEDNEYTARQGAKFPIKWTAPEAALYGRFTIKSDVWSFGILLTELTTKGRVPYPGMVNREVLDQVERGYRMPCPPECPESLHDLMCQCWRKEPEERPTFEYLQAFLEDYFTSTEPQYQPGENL
The settings on record: protein SRC; PM assay replicate # 39307; array fabrication # 39286. The essentials: as §1

Assay [6] deals with T6, SH2 and PTB domains (Homo sapiens, UniProt P43405).
T6 construct: thioredoxin; made in house; host or cells: BL21(DE3)pLysS E. coli
A digest of the protocol:
as §1

Assay [7] concerns the target T7, SH2 and PTB domains (Homo sapiens, UniProt P51451).
T7 construct: thioredoxin; made in house; host or cells: BL21(DE3)pLysS E. coli
Conditions: protein BLK. The essentials:
as §1

Assay [8] deals with T8, SH2 and PTB domains (Homo sapiens, UniProt Q92569).
T8 construct: thioredoxin; made in house; host or cells: BL21(DE3)pLysS E. coli
Conditions: protein PIK3R3-NC; PM assay replicate # 39307; array fabrication # 39286. The essentials:
as §1

Assay [9] addresses T9, SH2 and PTB domains (Homo sapiens, UniProt Q9BRG2).
T9 construct: thioredoxin; made in house; host or cells: BL21(DE3)pLysS E. coli
The settings on record: protein SH2D3A; PM assay replicate # 39307; array fabrication # 39286. A digest of the protocol: as §1

Where [10] appears, read: PM assay replicate # 39307, array fabrication # 39286.
The mark [11] stands for this setting: PM assay replicate # 39352, array fabrication # 39336.

T7 sequence (P51451 whole entry, the tested form may be a part): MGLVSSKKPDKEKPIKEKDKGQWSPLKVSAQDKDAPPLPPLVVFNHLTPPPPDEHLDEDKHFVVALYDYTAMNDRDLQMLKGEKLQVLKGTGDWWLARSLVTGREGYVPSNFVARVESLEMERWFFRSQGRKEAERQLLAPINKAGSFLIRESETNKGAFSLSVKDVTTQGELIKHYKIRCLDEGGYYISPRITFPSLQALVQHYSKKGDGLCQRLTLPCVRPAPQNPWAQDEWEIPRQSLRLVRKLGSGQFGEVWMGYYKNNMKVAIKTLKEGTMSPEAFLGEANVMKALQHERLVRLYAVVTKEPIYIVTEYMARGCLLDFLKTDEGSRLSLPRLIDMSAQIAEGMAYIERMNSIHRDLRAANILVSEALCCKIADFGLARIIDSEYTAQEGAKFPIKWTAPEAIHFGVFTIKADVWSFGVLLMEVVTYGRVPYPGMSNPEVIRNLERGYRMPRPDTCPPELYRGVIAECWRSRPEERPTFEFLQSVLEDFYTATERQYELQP
T1 sequence (O00459 whole entry, the tested form may be a part): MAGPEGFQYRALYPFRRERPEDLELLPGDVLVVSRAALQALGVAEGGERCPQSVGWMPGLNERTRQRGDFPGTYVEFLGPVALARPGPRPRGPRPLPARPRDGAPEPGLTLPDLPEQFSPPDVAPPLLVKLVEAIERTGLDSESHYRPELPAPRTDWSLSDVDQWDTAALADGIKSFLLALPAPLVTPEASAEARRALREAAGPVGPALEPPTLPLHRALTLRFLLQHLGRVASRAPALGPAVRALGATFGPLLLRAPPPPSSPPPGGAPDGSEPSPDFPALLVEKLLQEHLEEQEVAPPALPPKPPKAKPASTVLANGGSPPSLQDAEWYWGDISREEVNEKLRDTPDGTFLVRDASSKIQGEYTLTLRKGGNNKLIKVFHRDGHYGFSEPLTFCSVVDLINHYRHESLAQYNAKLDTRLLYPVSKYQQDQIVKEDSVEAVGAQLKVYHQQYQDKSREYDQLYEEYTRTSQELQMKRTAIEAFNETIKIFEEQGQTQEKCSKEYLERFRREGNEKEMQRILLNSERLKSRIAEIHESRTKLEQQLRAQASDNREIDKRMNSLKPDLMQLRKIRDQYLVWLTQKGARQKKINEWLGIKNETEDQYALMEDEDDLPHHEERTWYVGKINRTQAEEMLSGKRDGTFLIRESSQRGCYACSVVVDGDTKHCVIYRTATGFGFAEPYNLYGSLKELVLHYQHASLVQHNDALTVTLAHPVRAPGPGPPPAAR
T2 sequence (O43639 whole entry, the tested form may be a part): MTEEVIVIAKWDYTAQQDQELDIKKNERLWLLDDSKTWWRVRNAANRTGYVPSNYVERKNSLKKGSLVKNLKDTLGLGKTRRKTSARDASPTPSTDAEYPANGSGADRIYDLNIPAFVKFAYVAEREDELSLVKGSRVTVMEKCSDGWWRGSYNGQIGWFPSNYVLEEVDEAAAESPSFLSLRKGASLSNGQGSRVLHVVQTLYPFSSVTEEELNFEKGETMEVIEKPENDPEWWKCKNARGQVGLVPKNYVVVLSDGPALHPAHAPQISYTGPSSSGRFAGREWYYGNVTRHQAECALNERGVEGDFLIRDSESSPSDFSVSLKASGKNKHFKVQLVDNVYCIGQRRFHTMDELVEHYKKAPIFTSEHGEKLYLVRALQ
T9 sequence (Q9BRG2 whole entry, the tested form may be a part): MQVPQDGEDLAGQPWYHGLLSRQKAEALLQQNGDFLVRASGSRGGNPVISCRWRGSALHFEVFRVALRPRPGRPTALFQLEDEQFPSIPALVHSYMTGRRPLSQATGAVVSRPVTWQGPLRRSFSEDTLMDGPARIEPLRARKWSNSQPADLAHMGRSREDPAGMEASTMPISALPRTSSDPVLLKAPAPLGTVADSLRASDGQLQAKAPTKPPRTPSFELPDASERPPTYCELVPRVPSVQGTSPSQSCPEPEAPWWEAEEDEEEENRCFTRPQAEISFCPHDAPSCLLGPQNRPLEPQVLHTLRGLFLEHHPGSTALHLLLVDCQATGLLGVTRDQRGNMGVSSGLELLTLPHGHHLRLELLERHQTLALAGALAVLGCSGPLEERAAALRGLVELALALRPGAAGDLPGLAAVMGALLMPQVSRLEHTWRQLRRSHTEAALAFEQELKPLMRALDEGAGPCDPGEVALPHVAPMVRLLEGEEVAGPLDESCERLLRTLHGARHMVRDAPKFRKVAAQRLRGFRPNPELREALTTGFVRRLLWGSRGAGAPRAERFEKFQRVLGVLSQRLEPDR

Usually Kd stands for the constant that tells how readily two partners part at equilibrium. In the case of `CC[C@H](C)[C@H](NC(=O)[C@H](CC(N)=O)NC(=O)[C@H](CC(N)=O)NC(=O)[C@H](CCCCN)NC(=O)[C@H](CC(C)C)NC(=O)[C@H](Cc1ccc(OP(=O)(O)O)cc1)NC(=O)[C@H](CCC(=O)O)NC(=O)[C@H](C)NC(=O)[C@H](CCCCN)NC(=O)CNC(=O)[C@H](CC(C)C)NC(=O)[C@@H](NC(=O)[C@H](CC(N)=O)NC(=O)[C@H](C)NC(=O)[C@@H](N)Cc1ccccc1)[C@@H](C)O)C(=O)N[C@@H](CC(C)C)C(=O)N[C@@H](CO)C(=O)N[C@@H](CC(=O)O)C(=O)O` [ErbB4 pY1221 (18-mer)] (HELM PEPTIDE1{F.A.N.T.L.G.K.A.E.[O=C([C@H](Cc1ccc(OP(=O)(O)O)cc1)N[*:1])[*:2]].L.K.N.N.I.L.S.D}$$$$V2.0), the “Kd” value came to 1.34 µM at SH2 and PTB domains [1]; 0.21 µM on SH2 and PTB domains [2]; 0.77 µM on SH2 and PTB domains [3]; 0.82 µM on SH2 and PTB domains [4] (setting [10]); 1.32 µM at SH2 and PTB domains [4] (setting [11]); 0.44 µM at SH2 and PTB domains [5]. The “Kd” value stood at 9.49 µM on SH2 and PTB domains [6] (protein SYK-N, PM assay replicate # 39307, array fabrication # 39286); 15.60 µM at SH2 and PTB domains [6] (protein SYK-N, PM assay replicate # 39352, array fabrication # 39336); 0.29 µM at SH2 and PTB domains [6] (protein SYK-NC, PM assay replicate # 39307, array fabrication # 39286); 0.81 µM on SH2 and PTB domains [6] (protein SYK-NC, PM assay replicate # 39351, array fabrication # 39336); 1.29 µM at SH2 and PTB domains [6] (protein SYK-NC, PM assay replicate # 39352, array fabrication # 39336); 0.58 µM at SH2 and PTB domains [7] (setting [10]). In addition, the “Kd” value came out at 1.15 µM on SH2 and PTB domains [7] (PM assay replicate # 39351, array fabrication # 39336); 1.16 µM at SH2 and PTB domains [7] (setting [11]); 0.54 µM on SH2 and PTB domains [8]; 0.61 µM at SH2 and PTB domains [9].
